Reference: ChEMBL document CHEMBL1145227, “5-Amidinobenzo[b]thiophenes as dual inhibitors of factors IXa and Xa” (Bioorg Med Chem Lett, 2005)

Assays:
Coagulation factor IX = Coagulation factor IX (Homo sapiens, UniProt P00740); test: Inhibitory constant against human purified Coagulation factor IXa (fIXa)
Coagulation factor X = Coagulation factor X (Homo sapiens, UniProt P00742); test: Inhibitory constant against human purified Coagulation factor Xa (fXa)
Trypsin = Trypsin (Homo sapiens, UniProt P07477+P07478+P35030); test: Inhibitory constant against human trypsin; assay type: protein assay
Prothrombin = Prothrombin (Homo sapiens, UniProt P00734); test: Inhibitory constant against human thrombin

Coagulation factor IX, sequence (P00740 47-191 limits assumed): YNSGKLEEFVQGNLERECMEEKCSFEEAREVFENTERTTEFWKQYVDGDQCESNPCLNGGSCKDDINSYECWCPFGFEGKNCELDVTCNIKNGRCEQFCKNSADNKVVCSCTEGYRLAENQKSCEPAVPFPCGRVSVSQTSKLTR
Coagulation factor IX, sequence (P00740 227-461 limits assumed): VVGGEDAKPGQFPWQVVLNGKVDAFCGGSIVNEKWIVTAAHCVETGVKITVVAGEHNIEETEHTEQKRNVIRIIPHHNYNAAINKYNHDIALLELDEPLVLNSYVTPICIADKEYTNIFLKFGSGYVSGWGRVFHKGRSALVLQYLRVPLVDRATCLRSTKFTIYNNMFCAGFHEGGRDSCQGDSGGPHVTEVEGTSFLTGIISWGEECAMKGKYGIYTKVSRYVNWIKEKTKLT
Coagulation factor X, sequence (P00742 41-179 limits assumed): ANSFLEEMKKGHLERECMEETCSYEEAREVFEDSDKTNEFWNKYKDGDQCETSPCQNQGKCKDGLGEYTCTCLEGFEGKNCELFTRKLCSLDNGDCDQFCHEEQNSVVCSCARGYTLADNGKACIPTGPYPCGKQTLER
Coagulation factor X, sequence (P00742 235-488 limits assumed): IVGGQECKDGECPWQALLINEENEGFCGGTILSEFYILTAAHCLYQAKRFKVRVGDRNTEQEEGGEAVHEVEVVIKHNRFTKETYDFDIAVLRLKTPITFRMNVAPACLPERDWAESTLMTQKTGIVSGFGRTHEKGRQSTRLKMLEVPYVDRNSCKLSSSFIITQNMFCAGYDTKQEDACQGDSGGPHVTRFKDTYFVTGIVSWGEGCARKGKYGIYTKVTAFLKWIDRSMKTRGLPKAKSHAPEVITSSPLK

Compound	Ki (Coagulation factor IX)	Ki (Coagulation factor X)	Ki (Trypsin)	Ki (Prothrombin)
N=C(N)c1ccc2scc([C@H](Cc3ccccc3)C(=O)NC3CCCC[C@H]3C(=O)O)c2c1 (some centres undefined)	3500 nM	200 nM		
CCNC(=O)[C@@H]1CCCCC1NC(=O)[C@@H](Cc1ccccc1)c1csc2ccc(C(=N)N)cc12 (some centres undefined)	430 nM	130 nM		
N=C(N)c1ccc2scc([C@H](Cc3ccccc3)C(=O)NC3CCCC[C@H]3C(=O)NCc3ccccc3)c2c1 (some centres undefined)	> 32000 nM	> 9000 nM		
CCOC(=O)[C@@H]1CCCCC1NC(=O)C(Cc1ccccc1)C1=CS(=O)(=O)c2ccc(C(=N)N)cc21 (some centres undefined)	8530 nM	> 9000 nM	> 4200 nM	
N=C(N)c1ccc2[nH]cc(C(Cc3ccc(N)cc3)C(=O)Nc3ccc(-n4cnc5ccccc54)cc3)c2c1.O=C(O)C(F)(F)F (centres undefined)			> 4200 nM	4200 nM
COC(=O)[C@H]1CCCCC1NNC(=O)[C@@H](Cc1ccccc1)c1csc2ccc(C(=N)N)cc12 (some centres undefined)	41300 nM	> 9000 nM		
N=C(N)c1ccc2scc([C@@H](Cc3ccccc3)C(=O)Nc3ccc4ncsc4c3)c2c1	480 nM	2700 nM		
N#Cc1ccc(NC(=O)C(Cc2ccccc2)c2csc3ccc(C(=N)N)cc23)cc1 (centres undefined)	1730 nM	> 8000 nM		
N=C(N)c1ccc2scc(C(Cc3ccccc3)C(=O)Nc3ccc(S(=O)(=O)Nc4ccc(Cl)nn4)cc3)c2c1 (centres undefined)	930 nM	5360 nM		
N=C(N)c1ccc2[nH]cc(C(Cc3ccccc3)C(=O)Nc3ccc(-c4ccccc4S(N)(=O)=O)cc3)c2c1 (centres undefined)			150 nM	600 nM
CCOC(=O)[C@@H]1CCCCC1NC(=O)C(Cc1ccccc1)c1coc2ccc(C(=N)N)cc12 (some centres undefined)	1190 nM	270 nM	> 4200 nM	
N=C(N)c1ccc2scc(C(Cc3ccccc3)C(=O)Nc3ccc4ncsc4c3)c2c1 (centres undefined)	780 nM	> 8000 nM		
COC(=O)[C@@H]1CCCCC1NNC(=O)C(Cc1ccccc1)c1csc2ccc(C(=N)N)cc12 (some centres undefined)	500 nM	90 nM		
COC(=O)[C@@H]1CCCCC1NC(=O)C(Cc1ccccc1)c1c[nH]c2ccc(C(=N)N)cc12 (some centres undefined)	340 nM	19 nM	1500 nM	
CC1CCC(NC(=O)C(Cc2ccccc2)c2csc3ccc(C(=N)N)cc23)CC1 (centres undefined)	580 nM	3240 nM		
N=C(N)c1ccc2scc(C3(C(=O)Nc4ccc(-n5cnc6ccccc65)cc4)CC3)c2c1.O=C(O)C(F)(F)F	4900 nM	22 nM	60 nM	390 nM
N=C(N)c1ccc2scc(C(Cc3ccccc3)C(=O)Nc3ccc4ncsc4c3)c2c1 (single isomer, unassigned)	14200 nM	5700 nM		
N=C(N)c1ccc2scc(C(CC(=O)Nc3ccc(-n4cnc5ccccc54)cc3)Cc3ccccc3)c2c1.O=C(O)C(F)(F)F (centres undefined)	1250 nM	280 nM	> 4200 nM	4200 nM
Cc1ccc(F)cc1NC(=O)C(Cc1ccccc1)c1csc2ccc(C(=N)N)cc12 (centres undefined)	960 nM	> 8000 nM		
N=C(N)c1ccc2scc(C(Cc3ccccc3)C(=O)Nc3ccc(-n4cnc(-c5ccccc5)c4)cc3)c2c1.O=C(O)C(F)(F)F (centres undefined)	390 nM	2020 nM	> 4200 nM	> 6300 nM
N=C(N)c1ccc2[nH]cc(C(Cc3ccccc3)C(=O)Nc3ccc(-n4cnc5ccccc54)cc3F)c2c1.O=C(O)C(F)(F)F (centres undefined)			340 nM	13000 nM

Further molecules by falling Ki (Coagulation factor IX), results first:

Ki (Coagulation factor IX)	Ki (Coagulation factor X)	Ki (Trypsin)	Ki (Prothrombin)	Compound
310 nM	300 nM			COC(=O)[C@H]1CCCCC1NNC(=O)C(Cc1ccccc1)c1csc2ccc(C(=N)N)cc12 (some centres undefined)
280 nM	270 nM			COC(=O)[C@H]1CCCCC1NNC(=O)[C@H](Cc1ccccc1)c1csc2ccc(C(=N)N)cc12 (some centres undefined)
280 nM	65 nM			N=C(N)c1ccc2scc([C@H](Cc3ccccc3)C(=O)NC3CCCC[C@H]3C(=O)NCC(N)=O)c2c1 (some centres undefined)
250 nM	450 nM			N=C(N)c1ccc2scc(C(Cc3ccccc3)C(=O)Nc3ccc(Oc4ccccc4)cc3)c2c1 (centres undefined)
240 nM	530 nM	> 4200 nM		CCOC(=O)[C@@H]1CCCCC1NC(=O)[C@@H](Cc1ccccc1)c1cccc2ccc(C(=N)N)cc12 (some centres undefined)
230 nM	740 nM	3900 nM	> 6300 nM	N=C(N)c1ccc2scc(C(Cc3cccc4ccccc34)C(=O)Nc3ccc(-n4cnc5ccccc54)cc3)c2c1.O=C(O)C(F)(F)F (centres undefined)
220 nM	71 nM	270 nM	> 270 nM	CCC(C(=O)Nc1ccc(-n2cnc3ccccc32)cc1)c1csc2ccc(C(=N)N)cc12.O=C(O)C(F)(F)F (centres undefined)
140 nM	120 nM			COC(=O)[C@@H]1CCCCC1NC(=O)[C@@H](Cc1ccccc1)c1csc2ccc(C(=N)N)cc12 (some centres undefined)
130 nM	410 nM			N=C(N)c1ccc2scc(C(Cc3ccccc3)C(=O)Nc3ccc(-n4ccc(C(F)(F)F)n4)cc3)c2c1 (centres undefined)
120 nM	180 nM			CCOC(=O)[C@@H]1CCCCC1NC(=O)[C@@H](Cc1ccccc1)c1csc2ccc(C(=N)N)cc12 (some centres undefined)
98 nM	120 nM	1020 nM	> 6300 nM	N=C(N)c1ccc2scc(C(Cc3ccccc3)C(=O)Nc3ccc(-n4cnc5ccccc54)cc3)c2c1.O=C(O)C(F)(F)F (centres undefined)
74 nM	47 nM	> 4200 nM	4200 nM	N=C(N)c1ccc2scc(C(Cc3ccc(N)cc3)C(=O)Nc3ccc(-n4cnc5ccccc54)cc3)c2c1.O=C(O)C(F)(F)F (centres undefined)
